The nature of data set [1]: PAMPA (parallel artificial membrane permeability assay). It counts as in vitro ADME. The following applies: PAMPA; membrane permeation rate (Pe); 50 mM MOPSO buffer pH 6.5 with 5.0% glycocholic acid, 37° C., 18 hours; read-out: iPAMPA Pe. The method, boiled down: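 Artificial membrane was 10% (w/v) egg lecithin plus 0.5% (w/v) cholesterol in dodecane on a PVDF filter. A 10 mM DMSO stock was added at 0.5% (v/v) to donor buffer (50 mM MOPSO, pH 6.5, 5.0% glycocholic acid). After 18 h at 37 °C, LC/MS or LC/UV gave donor and acceptor levels for Pe.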
In general terms: In PAMPA a lipid-coated filter parts donor from acceptor wells.

The nature of data set [2]: Metabolic stability in human hepatic microsome. It counts as in vitro ADME. The note with it: microsomes, pH 7.4; human hepatic microsome, NADPH(+); read-out: CL NADPH(+).

Starred links: 1 amine or outer side, 2 acyl side, 3 side chain; linkers in the order of their positions; H or OH if unused. Positions of bridges follow the written chain, without caps; N, C: chain ends. Non-standard residues stand in square brackets, D forms with d. Residues, ends and D or L forms follow the SMILES beside them. *: point of attachment. NMeF = CN[C@@H](Cc1ccccc1)C(=O)O; NMeGABA = CN(CCCC(=O)[*:2])[*:1]; NMeI = CC[C@H](C)[C@H](NC)C(=O)O; NMeβAla = CN(CCC(=O)[*:2])[*:1]; NMeL = CN[C@@H](CC(C)C)C(=O)O; NMeV = CN[C@H](C(=O)O)C(C)C; NMeA = CN[C@@H](C)C(=O)O; Piperidide = C1CCN(*)CC1; Sar = CNCC(=O)O; tBu = CC(C)(C)*

This is an account of results in patent US9409952B2, “Peptide-compound cyclization method” (Chugai Seiyaku Kabushiki Kaisha, priority 2011, dated 2016).

`CC[C@H](C)[C@H]1C(=O)N[C@@H](CC(C)C)C(=O)N(C)[C@@H](CC(C)C)C(=O)N[C@H](C(=O)N2CCCCC2)CC(=O)N(C)CC(=O)N(C)[C@@H](CC(C)C)C(=O)N[C@@H]([C@@H](C)O)C(=O)N(C)[C@@H](C)C(=O)N[C@@H](C)C(=O)N(C)[C@@H](Cc2ccccc2)C(=O)N(C)[C@@H](Cc2ccccc2)C(=O)N1C` [DP-247] ([Sar][NMeL]T[NMeA]A[NMeF][NMeF][NMeI]L[NMeL]D-Piperidide; lactam N-11): the Papp at 18 hours, 50 µM in data set [1] was found to be 28 ×10⁻⁶ cm/s. The microsomal CLint at 1 uM in data set [2] is 48 µL/min/mg.

Consider `CC[C@H](C)[C@H]1C(=O)N(C)[C@@H](Cc2ccccc2)C(=O)N[C@@H](CC(C)C)C(=O)N[C@H](C(=O)N2CCCCC2)CC(=O)N(C)CCCC(=O)N(C)[C@@H](CC(C)C)C(=O)N[C@@H]([C@@H](C)O)C(=O)N(C)[C@@H](Cc2ccccc2)C(=O)N(C)[C@@H](CC(C)C)C(=O)N(C)[C@@H](CC(C)C)C(=O)N[C@@H](C)C(=O)N1C` [DP-248] ([NMeGABA][NMeL]T[NMeF][NMeL][NMeL]A[NMeI][NMeF]LD-Piperidide; lactam N-11), for which, in data set [1], the Papp at 18 hours, 50 µM is 2.6 ×10⁻⁶ cm/s. For the same compound, the microsomal CLint at 1 uM in data set [2] was 36 µL/min/mg.

`CC[C@H](C)[C@H]1C(=O)N[C@@H](CC(C)C)C(=O)N(C)[C@@H](CC(C)C)C(=O)N[C@H](C(=O)N2CCCCC2)CC(=O)N(C)CCCC(=O)N(C)[C@@H](CC(C)C)C(=O)N[C@@H]([C@@H](C)O)C(=O)N(C)[C@@H](C)C(=O)N[C@@H](C)C(=O)N(C)[C@@H](Cc2ccccc2)C(=O)N(C)[C@@H](Cc2ccccc2)C(=O)N1C` [DP-249] ([NMeGABA][NMeL]T[NMeA]A[NMeF][NMeF][NMeI]L[NMeL]D-Piperidide; lactam N-11): the Papp at 18 hours, 50 µM in data set [1] came to 34 ×10⁻⁶ cm/s. In addition, the microsomal CLint at 1 uM in data set [2] is 151 µL/min/mg.

Consider `CC[C@H](C)[C@H]1C(=O)N(C)[C@@H](C(C)C)C(=O)N(C)[C@@H](CC(C)C)C(=O)N[C@@H]([C@@H](C)O)C(=O)N[C@H](C(=O)N2CCCCC2)CC(=O)N(C)CCCC(=O)N[C@@H](Cc2ccccc2)C(=O)N(C)[C@@H](CC(C)C)C(=O)N(C)[C@@H](C)C(=O)N(C)[C@@H](Cc2ccccc2)C(=O)N[C@@H](C)C(=O)N1C` [DP-250] ([NMeGABA]F[NMeL][NMeA][NMeF]A[NMeI][NMeV][NMeL]TD-Piperidide; lactam N-11), for which the Papp at 18 hours, 50 µM in data set [1] was 29 ×10⁻⁶ cm/s. Besides, the microsomal CLint at 1 uM in data set [2] is 42 µL/min/mg.

Turning to `CC[C@H](C)[C@H]1C(=O)N[C@H](C(=O)N2CCCCC2)CC(=O)N(C)CCCC(=O)N(C)[C@@H](CC(C)C)C(=O)N[C@@H](C)C(=O)N(C)[C@@H](CC(C)C)C(=O)N(C)[C@@H](Cc2ccccc2)C(=O)N(C)[C@@H](CC(C)C)C(=O)N[C@@H]([C@@H](C)O)C(=O)N(C)[C@@H](C)C(=O)N(C)[C@@H](Cc2ccccc2)C(=O)N1C` [DP-251] ([NMeGABA][NMeL]A[NMeL][NMeF][NMeL]T[NMeA][NMeF][NMeI]D-Piperidide; lactam N-11), the Papp at 18 hours, 50 µM in data set [1] was determined as 24 ×10⁻⁶ cm/s. The microsomal CLint at 1 uM in data set [2] is 45 µL/min/mg.

With `CC[C@H](C)[C@H]1C(=O)N(C)[C@@H](CC(C)C)C(=O)N[C@@H](Cc2ccccc2)C(=O)N[C@@H]([C@@H](C)O)C(=O)N[C@@H](CC(C)C)C(=O)N(C)[C@@H](Cc2ccccc2)C(=O)N(C)[C@@H](C(C)C)C(=O)N[C@H](C(=O)N2CCCCC2)CC(=O)N[C@H](C)C(=O)N[C@@H](C)C(=O)N1C` [DP-252] ([dA]A[NMeI][NMeL]FTL[NMeF][NMeV]D-Piperidide; lactam N-10), in data set [1], the Papp at 18 hours, 50 µM was found to be 47 ×10⁻⁶ cm/s. Besides, the microsomal CLint at 1 uM in data set [2] is 119 µL/min/mg.

With `CC[C@H](C)[C@H]1C(=O)N[C@H](C(=O)N2CCCCC2)CC(=O)N[C@H](C(C)C)C(=O)N[C@@H]([C@@H](C)O)C(=O)N(C)[C@@H](C)C(=O)N(C)[C@@H](C(C)C)C(=O)N[C@@H](Cc2ccccc2)C(=O)N(C)[C@@H](CC(C)C)C(=O)N[C@@H](C)C(=O)N(C)CC(=O)N1C` [DP-253] ([dV]T[NMeA][NMeV]F[NMeL]A[Sar][NMeI]D-Piperidide; lactam N-10), the Papp at 18 hours, 50 µM in data set [1] amounted to 7.5 ×10⁻⁶ cm/s. Also, the microsomal CLint at 1 uM in data set [2] was 42 µL/min/mg.

`CC[C@H](C)[C@H]1C(=O)N[C@@H](C)C(=O)N[C@H](C(=O)N2CCCCC2)CC(=O)N[C@H](C(C)C)C(=O)N[C@@H](Cc2ccccc2)C(=O)N(C)[C@@H](C(C)C)C(=O)N(C)[C@@H](C)C(=O)N[C@@H]([C@@H](C)O)C(=O)N(C)CC(=O)N(C)[C@@H](CC(C)C)C(=O)N1C` [DP-254] ([dV]F[NMeV][NMeA]T[Sar][NMeL][NMeI]AD-Piperidide; lactam N-10): in data set [1], the Papp at 18 hours, 50 µM is 3.5 ×10⁻⁶ cm/s. For the same compound, the microsomal CLint at 1 uM in data set [2] is 13 µL/min/mg.

In the case of `CC[C@H](C)[C@@H]1NC(=O)[C@H](CC(C)C)N(C)C(=O)[C@H](Cc2ccccc2)N(C)C(=O)[C@@H](C(C)C)NC(=O)C[C@@H](C(=O)N2CCCCC2)NC(=O)[C@H](CC(C)C)N(C)C(=O)[C@H](C)N(C)C(=O)[C@H]([C@@H](C)O)NC(=O)[C@H](Cc2ccccc2)N(C)C(=O)[C@H](C)N(C)C1=O` [DP-255] ([dV][NMeF][NMeL]I[NMeA][NMeF]T[NMeA][NMeL]D-Piperidide; lactam N-10), the Papp at 18 hours, 50 µM in data set [1] turned out to be 48 ×10⁻⁶ cm/s. Further, the microsomal CLint at 1 uM in data set [2] is 79 µL/min/mg.

Consider `CC[C@H](C)[C@H]1C(=O)N(C)[C@@H](CC(C)C)C(=O)N(C)[C@@H](Cc2ccccc2)C(=O)N[C@@H]([C@@H](C)O)C(=O)N(C)[C@@H](Cc2ccccc2)C(=O)N(C)[C@@H](CC(C)C)C(=O)N(C)[C@@H](CC(C)C)C(=O)N[C@H](C(=O)N2CCCCC2)CC(=O)N[C@H](C(C)C)C(=O)N[C@@H](C)C(=O)N1C` [DP-256] ([dV]A[NMeI][NMeL][NMeF]T[NMeF][NMeL][NMeL]D-Piperidide; lactam N-10), for which, in data set [1], the Papp at 18 hours, 50 µM is 19 ×10⁻⁶ cm/s. Also, the microsomal CLint at 1 uM in data set [2] was 44 µL/min/mg.

As to `CC[C@H](C)[C@H]1C(=O)N[C@H](C(=O)N2CCCCC2)CC(=O)N[C@H](C(C)C)C(=O)N(C)[C@@H](CC(C)C)C(=O)N(C)[C@@H](Cc2ccccc2)C(=O)N(C)[C@@H](C)C(=O)N[C@@H]([C@@H](C)O)C(=O)N(C)CC(=O)N(C)[C@@H](CC(C)C)C(=O)N[C@@H](COC(C)(C)C)C(=O)N1C` [DP-257] ([dV][NMeL][NMeF][NMeA]T[Sar][NMeL]S(tBu)[NMeI]D-Piperidide; lactam N-10), the Papp at 18 hours, 50 µM in data set [1] worked out at 33 ×10⁻⁶ cm/s. Also, in data set [2], the microsomal CLint at 1 uM stood at 46 µL/min/mg.

On to `CC[C@H](C)[C@@H]1NC(=O)[C@H](C)N(C)C(=O)[C@H](C)N(C)C(=O)C[C@@H](C(=O)N2CCCCC2)NC(=O)[C@H](CC(C)C)N(C)C(=O)[C@H](Cc2ccccc2)N(C)C(=O)[C@H](C)N(C)C(=O)[C@H]([C@@H](C)O)NC(=O)[C@H](Cc2ccccc2)N(C)C(=O)[C@H](CC(C)C)N(C)C1=O` [DP-258] ([NMeA][NMeA]I[NMeL][NMeF]T[NMeA][NMeF][NMeL]D-Piperidide; lactam N-10), for which the Papp at 18 hours, 50 µM in data set [1] was 52 ×10⁻⁶ cm/s. Besides, the microsomal CLint at 1 uM in data set [2] turned out to be 188 µL/min/mg.

For `CC[C@H](C)[C@H]1C(=O)N(C)[C@@H](CC(C)C)C(=O)N(C)[C@@H](Cc2ccccc2)C(=O)N[C@@H](CC(C)C)C(=O)N(C)[C@@H](C(C)C)C(=O)N[C@@H](Cc2ccccc2)C(=O)N[C@@H]([C@@H](C)O)C(=O)N[C@H](C(=O)N2CCCCC2)CC(=O)N(C)CCC(=O)N[C@@H](C)C(=O)N1C` [DP-259] ([NMeβAla]A[NMeI][NMeL][NMeF]L[NMeV]FTD-Piperidide; lactam N-10), the Papp at 18 hours, 50 µM in data set [1] was determined as 28 ×10⁻⁶ cm/s. Besides, the microsomal CLint at 1 uM in data set [2] is 91 µL/min/mg.
